Inhibition data for 33 compounds are collected here from US10668051B2, “Modulators of calcium release-activated calcium channel” (Rhizen Pharmaceuticals SA, priority 2009, dated 2020).

Counter-ions that a name gives are not always drawn.

In the assay the target is CRAC channels (Homo sapiens (Human), UniProt Q96D31). Kind of assay: In-vitro CRAC channel inhibition assay in Jurkat cells (thapsigargin-induced calcium influx). The format is cell-based. The procedure: 1A. In-Vitro CRAC Channel Inhibition Assay in Jurkat Cells
Chain of CRAC channels (Q96D31 whole entry): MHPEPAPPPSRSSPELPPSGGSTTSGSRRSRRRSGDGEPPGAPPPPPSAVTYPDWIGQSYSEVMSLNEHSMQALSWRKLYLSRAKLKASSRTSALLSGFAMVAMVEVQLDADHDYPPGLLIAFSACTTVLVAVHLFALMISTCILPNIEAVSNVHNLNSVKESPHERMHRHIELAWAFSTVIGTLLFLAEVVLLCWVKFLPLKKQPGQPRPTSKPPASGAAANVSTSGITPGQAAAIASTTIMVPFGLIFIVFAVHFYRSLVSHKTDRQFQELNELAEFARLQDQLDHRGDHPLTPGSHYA
Plate is incubated at 37° C./5% CO2 for 30 min followed by further 15 min incubation at room temperature. Test compounds (DMSO stocks diluted in Ca^2+ and Mg^2+ free Hanks buffer) at desired concentrations were added to the wells and incubated for 15 min. Thapsigargin (1 μM final concentration) was added to the wells and incubated for 15 min to inhibit the Sarco-endoplasmic reticulum Ca^2+ ATPase pump thereby depleting endoplasmic calcium and raising cytosolic calcium concentrations. Store-operated calcium entry was initiated by adding extracellular Ca^2+ to a final concentration of 1.8 mM. Fluorescence was monitored over 5 min on a plate reader (BMG Labtech., Germany) with excitation at 485 nm and; an emission wavelength at 520 nm. Data were analyzed using GraphPad Prism. IC50 for each compound was determined based on the percent inhibition of thapsigargin-induced calcium influx into cells.
`CS(=O)(=O)c1ccc(Cl)c(C(=O)Nc2ccc(-n3nc(C(F)(F)F)cc3C3CC3)cc2)c1` [Example 65, 2-chloro-N-{4-[5-cyclopropyl-3-(trifluoromethyl)-1H-pyrazol-1-yl]phenyl}-5-(methylsulfonyl)benzamide]: the inhibition at 1 µM turned out to be 97.9%.

With `O=C(Nc1ccc(-n2nc(C(F)(F)F)cc2C2CC2)cc1)c1ccncc1` [Example 66, N-{4-[5-cyclopropyl-3-(trifluoromethyl)-1H-pyrazol-1-yl]phenyl}pyridine-4-carboxamide hydrochloride], the inhibition at 1 µM worked out at 100%.

In the case of `O=C(Nc1ccc(-n2nc(C(F)(F)F)cc2C2CC2)cc1)c1ccncc1F` [Example 67, N-{4-[5-cyclopropyl-3-(trifluoromethyl)-1H-pyrazol-1-yl]phenyl}-3-fluoroisonicotinamide], the inhibition at 1 µM is 100%.

Regarding `Cc1ncncc1C(=O)Nc1ccc(-n2nc(C(F)(F)F)cc2C2CC2)cc1` [Example 68, N-{4-[5-cyclopropyl-3-(trifluoromethyl)-1H-pyrazol-1-yl]phenyl}-4-methylpyrimidine-5-carboxamide], the inhibition at 1 µM turned out to be 61.5%.

`O=C(Cc1ccc(F)cc1)Nc1ccc(-n2nc(C(F)(F)F)cc2C2CC2)cc1` [Example 70, N-{4-[5-cyclopropyl-3-(trifluoromethyl)-1H-pyrazol-1-yl]phenyl}-2-(4-fluorophenyl)acetamide]: the inhibition at 1 µM is 68.9%.

For the compound `O=C(Cc1ccccn1)Nc1ccc(-n2nc(C(F)(F)F)cc2C2CC2)cc1` [Example 71, N-{4-[5-cyclopropyl-3-(trifluoromethyl)-1H-pyrazol-1-yl]phenyl}-2-(pyridin-2-yl)acetamide hydrochloride], the inhibition at 1 µM is 100%.

Regarding `O=C(Cc1cccnc1)Nc1ccc(-n2nc(C(F)(F)F)cc2C2CC2)cc1` [Example 72, N-{4-[5-cyclopropyl-3-(trifluoromethyl)-1H-pyrazol-1-yl]phenyl}-2-(pyridin-3-yl)acetamide hydrochloride], the inhibition at 1 µM was found to be 100%.

Turning to `O=C(Cc1ccncc1)Nc1ccc(-n2nc(C(F)(F)F)cc2C2CC2)cc1` [Example 73, N-{4-[5-cyclopropyl-3-(trifluoromethyl)-1H-pyrazol-1-yl]phenyl}-2-(pyridin-4-yl)acetamide hydrochloride], the inhibition at 1 µM amounted to 68%.

Regarding `Cc1ncsc1CNc1ccc(-n2nc(C(F)(F)F)cc2C2CC2)cc1` [Example 74, 4-[5-cyclopropyl-3-(trifluoromethyl)-1H-pyrazol-1-yl]-N-[(4-methylthiazol-5-yl)methyl]aniline], the inhibition at 1 µM worked out at 100%.

Take `Cc1nnsc1NC(=O)Nc1ccc(-n2nc(C(F)(F)F)cc2C2CC2)cc1` [Example 75, 1-{4-[5-cyclopropyl-3-(trifluoromethyl)-1H-pyrazol-1-yl]phenyl}-3-(4-methyl-1,2,3-thiadiazol-5-yl)urea]: the inhibition at 1 µM was found to be 0%.

`Cc1ncsc1NC(=O)Nc1ccc(-n2nc(C(F)(F)F)cc2C2CC2)cc1` [Example 76, 1-{4-[5-cyclopropyl-3-(trifluoromethyl)-1H-pyrazol-1-yl]phenyl}-3-(4-methylthiazol-5-yl)urea]: the inhibition at 1 µM came to 92.3%.

In the case of `Cc1ncncc1NC(=O)Nc1ccc(-n2nc(C(F)(F)F)cc2C2CC2)cc1` [Example 77, 1-{4-[5-cyclopropyl-3-(trifluoromethyl)-1H-pyrazol-1-yl]phenyl}-3-(4-methylpyrimidin-5-yl)urea], the inhibition at 1 µM came to 44%.

Regarding `O=C(Nc1c(F)cccc1F)c1ccc(-n2nc(C(F)(F)F)cc2C2CC2)cc1` [Example 79, 4-[5-cyclopropyl-3-(trifluororomethyl)-1H-pyrazol-1-yl]-N-(2,6-difluorophenyl) benzamide], the inhibition at 1 µM worked out at 100%.

Turning to `Cc1ncsc1C(=O)Nc1ccc(-n2nc(C(F)(F)F)c(Cl)c2C2CC2)cc1` [Example 80, N-{4-[4-chloro-5-cyclopropyl-3-(trifluoromethyl)-1H-pyrazol-1-yl]phenyl}-4-methylthiazole-5-carboxamide], the inhibition at 1 µM came to 81.6%.

Take `O=C(Cc1ccccn1)Nc1ccc(-n2nc(C(F)(F)F)c(Cl)c2C2CC2)cc1` [Example 81, N-{4-[4-chloro-5-cyclopropyl-3-(trifluoromethyl)-1H-pyrazol-1-yl]phenyl}-2-(pyridin-2-yl)acetamide hydrochloride]: the inhibition at 1 µM was found to be 56.1%.

With `Cc1oncc1C(=O)Nc1ccc(-n2nc(C(F)(F)F)cc2C2CC2)c(F)c1` [Example 84, N-{4-[5-cyclopropyl-3-(trifluoromethyl)-1H-pyrazol-1-yl]-3-fluorophenyl}-5-methylisoxazole-4-carboxamide], the inhibition at 1 µM came out at 100%.

For the compound `Cc1noc(C)c1C(=O)Nc1ccc(-n2nc(C(F)(F)F)cc2C2CC2)c(F)c1` [Example 85, N-{4-[5-cyclopropyl-3-(trifluoromethyl)-1H-pyrazol-1-yl]-3-nuorophenyl}-3,5-dimethylisoxazole-4-carboxamide], the inhibition at 1 µM was 76.6%.

Take `Cc1ccccc1C(=O)Nc1ccc(-n2nc(C(F)(F)F)cc2C2CC2)c(F)c1` [Example 86, N-{4-[5-cyclopropyl-3-(trifluoromethyl)-1H-pyrazol-1-yl]-3-fluorophenyl}-2-methylbenzamide]: the inhibition at 1 µM was 86.6%.

As to `O=C(Nc1ccc(-n2nc(C(F)(F)F)cc2C2CC2)c(F)c1)c1cccc(F)c1F` [Example 87, N-{4-[5-cyclopropyl-3-(trifluoromethyl)-1H-pyrazol-1-yl]-3-fluorophenyl}-2,3-difluorobenzamide], the inhibition at 1 µM came out at 91.6%.

As for `O=C(Nc1ccc(-n2nc(C(F)(F)F)cc2C2CC2)c(F)c1)c1cccnc1` [Example 89, N-{4-[5-cyclopropyl-3-(trifluoromethyl)-1H-pyrazol-1-yl]-3-fluorophenyl}nicotinamide hydrochloride], the inhibition at 1 µM stood at 100%.

Turning to `Cc1ncncc1C(=O)N(C)c1ccc(-n2nc(C(F)(F)F)cc2C2CC2)c(F)c1` [Example 94, N-{4-[5-cyclopropyl-3-(trifluoromethyl)-1H-pyrazol-1-yl]-3-fluorophenyl}-N,4-dimethylpyrimidine-5-carboxamide], the inhibition at 1 µM turned out to be 45.4%.

Turning to `Cc1nnsc1C(=O)Nc1ccc(-n2nc(C(F)(F)F)c(Cl)c2C2CC2)c(F)c1` [Example 95, N-{4-[4-chloro-5-cyclopropyl-3-(trifluoromethyl)-1H-pyrazol-1-yl]-3-fluorophenyl}-4-methyl-1,2,3-thiadiazole-5-carboxamide], the inhibition at 1 µM was 100%.

As to `O=C(Cc1ccccn1)Nc1ccc(-n2nc(C(F)(F)F)c(Cl)c2C2CC2)c(F)c1` [Example 96, N-{4-[4-chloro-5-cyclopropyl-3-(trifluoromethyl)-1H-pyrazol-1-yl]-3-fluorophenyl}-2-(pyridin-2-yl)acetamide hydrochloride], the inhibition at 1 µM worked out at 18%.

Take `Cc1ncncc1NC(=O)Nc1ccc(-n2nc(C(F)(F)F)cc2C2CC2)c(F)c1` [Example 97, 1-{4-[5-cyclopropyl-3-(trifluoromethyl)-1H-pyrazol-1-yl]-3-fluorophenyl}-3-(4-methylpyrimidin-5-yl)urea]: the inhibition at 1 µM came out at 97%.

For the compound `O=C(Nc1c(Cl)cccc1Cl)c1ccc(-n2nc(C(F)(F)F)cc2C2CC2)c(F)c1` [Example 98], the inhibition at 1 µM is 85.6%.

In the case of `O=C(Nc1cccc(F)c1F)c1ccc(-n2nc(C(F)(F)F)cc2C2CC2)c(F)c1` [Example 99, 4-[5-cyclopropyl-3-(trifluoromethyl)-1H-pyrazol-1-yl]-N-(2,3-difluorophenyl)-3-fluorobenzamide], the inhibition at 1 µM was determined as 56.2%.

For the compound `Cc1nnsc1C(=O)Nc1ccc(-n2nc(C(F)(F)F)cc2C2CC2)nc1` [Example 101, N-{6-[5-cyclopropyl-3-(trifluoromethyl)-1H-pyrazol-1-yl]pyridin-3-yl}-4-methyl-1,2,3-thiadiazole-5-carboxamide], the inhibition at 1 µM came to 93%.

`Cc1ncsc1C(=O)Nc1ccc(-n2nc(C(F)(F)F)cc2C2CC2)nc1` [Example 102, N-{6-[5-cyclopropyl-3-(trifluoromethyl)-1H-pyrazol-1-yl]pyridin-3-yl}-4-methylthiazole-5-carboxamide hydrochloride]: the inhibition at 1 µM was determined as 34.9%.

Regarding `Cc1noc(C)c1C(=O)Nc1ccc(-n2nc(C(F)(F)F)cc2C2CC2)nc1` [Example 103, N-{6-[5-cyclopropyl-3-(trifluoromethyl)-1H-pyrazol-1-yl]pyridin-3-yl}-3,5-dimethylisoxazole-4-carboxamide], the inhibition at 1 µM amounted to 19.4%.

Regarding `O=C(Nc1ccc(-n2nc(C(F)(F)F)cc2C2CC2)nc1)c1ccccc1Cl` [Example 105, 2-chloro-N-{6-[5-cyclopropyl-3-(trifluoromethyl)-1H-pyrazol-1-yl]pyridin-3-yl}benzamide hydrochloride], the inhibition at 1 µM came out at 71.2%.

For `O=C(Nc1ccc(-n2nc(C(F)(F)F)cc2C2CC2)nc1)c1cccc(F)c1F` [Example 107, N-{6-[5-cyclopropyl-3-(trifluoromethyl)-1H-pyrazol-1-yl]pyridin-3-yl}-2,3-difluorobenzamide], the inhibition at 1 µM amounted to 97%.

As to `O=C(Nc1ccc(-n2nc(C(F)(F)F)cc2C2CC2)nc1)c1ccccn1` [Example 109, N-{6-[5-cyclopropyl-3-(trifluoromethyl)-1H-pyrazol-1-yl]pyridin-3-yl}picolinamide], the inhibition at 1 µM is 6.18%.

In the case of `Cc1cccnc1C(=O)Nc1ccc(-n2nc(C(F)(F)F)cc2C2CC2)nc1` [Example 110, N-{6-[5-cyclopropyl-3-(trifluoromethyl)-1H-pyrazol-1-yl]pyridin-3-yl}-3-methylpicolinamide], the inhibition at 1 µM is 78.4%.
